Each block holds one molecule with its values, some of them ahead of it.
Molecular target: T1, factor XIII (Homo sapiens, UniProt P00488)
T1 construct: The test batch contained: 200 μl of plasma; from tissue; host or cells: standard human plasma
T1 sequence (P00488 39-732 limits assumed): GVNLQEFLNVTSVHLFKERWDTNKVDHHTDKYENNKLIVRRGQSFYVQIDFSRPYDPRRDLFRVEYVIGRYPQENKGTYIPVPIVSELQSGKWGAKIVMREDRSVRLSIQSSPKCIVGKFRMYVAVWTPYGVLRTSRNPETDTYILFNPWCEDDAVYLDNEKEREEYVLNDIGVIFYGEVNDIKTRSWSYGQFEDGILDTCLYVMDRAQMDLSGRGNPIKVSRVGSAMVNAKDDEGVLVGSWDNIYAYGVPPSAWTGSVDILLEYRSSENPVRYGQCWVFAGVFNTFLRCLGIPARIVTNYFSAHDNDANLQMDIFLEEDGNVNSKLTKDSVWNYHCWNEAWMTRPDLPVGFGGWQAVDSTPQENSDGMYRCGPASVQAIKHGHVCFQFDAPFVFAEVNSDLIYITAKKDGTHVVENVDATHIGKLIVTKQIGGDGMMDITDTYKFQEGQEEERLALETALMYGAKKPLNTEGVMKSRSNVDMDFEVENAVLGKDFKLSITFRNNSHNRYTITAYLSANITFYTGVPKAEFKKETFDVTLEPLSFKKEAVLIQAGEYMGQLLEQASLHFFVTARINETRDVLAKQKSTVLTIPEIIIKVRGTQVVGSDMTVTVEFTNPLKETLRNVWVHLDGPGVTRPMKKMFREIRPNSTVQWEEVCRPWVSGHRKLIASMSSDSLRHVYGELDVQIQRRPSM
Assay: TEG of standard human plasma with low molecular weight factor XIII inhibitors, clotting started by tissue factor reagent (Thromborel S)
Format: biochemical
Protocol: For the quantitative determination of the influence of factor XIII, standard human plasma with or without addition of low molecular weight factor XIII inhibitors was analysed by means of TEG. The clotting reaction was started or accelerated by addition of a tissue factor reagent. The test batch contained: 200 μl of plasma, 30 μl of NaCl soln (control) or inhibitor solution in different dilutions, 50 μl of tissue factor reagent. (Thromborel S, Dade Behring) and 20 μl of calcium chloride solution (200 mmol/l). The reagents were pipetted into the cup at 37° C. and the TEG measurement was started with Haemoscope apparatuses. Alternatively, the calcium chloride can also be already added to the tissue factor reagent and the reaction thus started. The measurement parameters of reaction time (R), alpha angle, maximum amplitude (MA) and time to achieve the maximum amplitude (MA) were determined and evaluated. […] The investigations carried out here with plasma are in principle also applicable to whole blood.

[1] = concentration in the test 0.32 μg/ml, standard human plasma
[2] = concentration in the test 1.07 μg/ml, standard human plasma
[3] = concentration in the test 3.21 μg/ml, standard human plasma
[4] = concentration in the test 10.7 μg/ml, standard human plasma
[5] = concentration in the test 32.1 μg/ml, standard human plasma
[6] = concentration in the test 107 μg/ml, standard human plasma, 107 µg/ml in the test
[7] = concentration in the test 321 μg/ml, standard human plasma, 321 µg/ml in the test
[8] = concentration in the test 536 μg/ml, standard human plasma, 536 µg/ml in the test
[9] = concentration in the test 1.071 μg/ml (so in the source), standard human plasma
[10] = concentration in the test 3.214 μg/ml (so in the source), standard human plasma
[11] = concentration in the test 107 μg/ml, standard human plasma
[12] = concentration in the test 321 μg/ml, standard human plasma
[13] = concentration in the test 0.033 μg/ml, Table 3
[14] = concentration in the test 0.10 μg/ml, Table 3
[15] = concentration in the test 0.33 μg/ml, Table 3
[16] = concentration in the test 1.00 μg/ml, Table 3
[17] = concentration in the test 3.33 μg/ml, Table 3

Angle [1]: 74.0 ° | MA [1]: 18.1 mm | R [1]: 20.0 s | TMA [1]: 655.0 s | Angle [2]: 74.9 ° | MA [2]: 18.4 mm | R [2]: 22.5 s | TMA [2]: 610.0 s | Angle [3]: 74.7 ° | MA [3]: 19.1 mm | R [3]: 20.0 s | TMA [3]: 657.5 s | Angle [4]: 74.4 ° | MA [4]: 18.4 mm | R [4]: 25.0 s | TMA [4]: 560.0 s | Angle [5]: 74.4 ° | MA [5]: 17.3 mm | R [5]: 17.5 s | TMA [5]: 562.5 s | Angle [6]: 76.9 ° | MA [6]: 18.7 mm | R [6]: 32.5 s | TMA [6]: 237.5 s | Angle [7]: 71.0 ° | MA [7]: 15.1 mm | R [7]: 20.0 s | TMA [7]: 490.0 s | Angle [8]: 70.3 ° | MA [8]: 13.3 mm | R [8]: 27.5 s | TMA [8]: 370.0 s
SMILES: CN(C)c1cccc2c(S(=O)(=O)NCCCCCN)cccc12 [Monodansylcadaverine]

Angle [2]: 73.4 ° | MA [2]: 17.8 mm | R [2]: 20.0 s | TMA [2]: 592.5 s | Angle [9]: 70.3 ° | MA [9]: 14.0 mm | R [9]: 15.0 s | TMA [9]: 492.5 s | Angle [3]: 75.0 ° | MA [3]: 17.9 mm | R [3]: 22.5 s | TMA [3]: 527.5 s | Angle [10]: 71.9 ° | MA [10]: 13.0 mm | R [10]: 25.0 s | TMA [10]: 182.5 s | Angle [4]: 74.8 ° | MA [4]: 19.2 mm | R [4]: 20.0 s | TMA [4]: 622.5 s | Angle [5]: 73.9 ° | MA [5]: 17.2 mm | R [5]: 22.0 s | TMA [5]: 472.5 s | Angle [11]: 73.5 ° | MA [11]: 16.9 mm | R [11]: 17.5 s | TMA [11]: 462.5 s | Angle [12]: 72.7 ° | MA [12]: 15.5 mm | R [12]: 20.0 s | TMA [12]: 430.0 s
SMILES: NCCc1c[nH]cn1 [Histamine]

Angle [2]: 73.1 ° | MA [2]: 17.2 mm | R [2]: 22.5 s | TMA [2]: 452.5 s | Angle [9]: 69.5 ° | MA [9]: 13.6 mm | R [9]: 25 s | TMA [9]: 405.0 s | Angle [3]: 73.7 ° | MA [3]: 15.9 mm | R [3]: 17.5 s | TMA [3]: 277.5 s | Angle [10]: 72.6 ° | MA [10]: 13.9 mm | R [10]: 32.5 s | TMA [10]: 327.5 s | Angle [4]: 73.4 ° | MA [4]: 18.7 mm | R [4]: 20.0 s | TMA [4]: 672.5 s | Angle [5]: 73.0 ° | MA [5]: 16.9 mm | R [5]: 25 s | TMA [5]: 585.0 s | Angle [11]: 73.0 ° | MA [11]: 16.5 mm | R [11]: 15 s | TMA [11]: 505.0 s | Angle [12]: 72.8 ° | MA [12]: 15.8 mm | R [12]: 20 s | TMA [12]: 400.0 s
SMILES: NCCCCN [Putrescine]

MA (concentration in the test 0.033 μg/ml): 21.5 mm | Angle [13]: 79.6 ° | R [13]: 22.5 s | TMA [13]: 177.5 s | MA (concentration in the test 0.10 μg/ml): 18.5 mm | Angle [14]: 79.0 ° | R [14]: 22.5 s | TMA [14]: 140.0 s | MA (concentration in the test 0.33 μg/ml): 14.9 mm | Angle [15]: 77.0 ° | R [15]: 22.5 s | TMA [15]: 77.5 s | MA (concentration in the test 1.00 μg/ml): 13.1 mm | Angle [16]: 75.4 ° | R [16]: 22.5 s | TMA [16]: 77.5 s | MA (concentration in the test 3.33 μg/ml): 12.4 mm | Angle [17]: 74.0 ° | R [17]: 22.5 s | TMA [17]: 77.5 s
SMILES: CC(=O)CSc1n(C)c(C)c(C)[n+]1C.[Cl-] [1,3,4,5-tetramethyl-2-[(2-oxopropyl)thio]imidazolium chloride]
